{
  "source": "ChEMBL document CHEMBL4251574",
  "about": "“Design, synthesis, and biological evaluation of new 1,2,3-triazolo-2'-deoxy-2'-fluoro- 4'-azido nucleoside derivatives as potent anti-HBV agents” (Eur J Med Chem, 2018)",
  "type_in_all_cases": "functional",
  "key": {"Hepatitis B virus [1]": {"system": "Hepatitis B virus", "assay": "Antiviral activity against Hepatitis B virus infected in human HepG2.2.15 cells assessed as inhibition of HBeAg secretion at 5 uM after 9 days by ELISA relative to control", "settings": "HepG2.2.15, 216 h"}, "Duck hepatitis B virus [2]": {"system": "Duck hepatitis B virus", "assay": "Antiviral activity against DHBV infected in duck assessed as inhibition of viral DNA level in liver at 0.2 mg/kg, po administered once daily measured on day 10 by SYBR Green I dye-based FQ-PCR analysis relative to control", "settings": "240 h"}, "Hepatitis B virus [3]": {"system": "Hepatitis B virus", "assay": "Antiviral activity against Hepatitis B virus infected in human HepG2.2.15 cells assessed as inhibition of HBsAg secretion at 5 uM after 9 days by ELISA relative to control", "settings": "HepG2.2.15, 216 h"}, "Duck hepatitis B virus [4]": {"system": "Duck hepatitis B virus", "assay": "Antiviral activity against DHBV infected in duck assessed as inhibition of viral DNA level in liver at 1 mg/kg, po administered once daily measured on day 10 by SYBR Green I dye-based FQ-PCR analysis relative to control", "settings": "240 h"}, "Hepatitis B virus [5]": {"system": "Hepatitis B virus", "assay": "Antiviral activity against Hepatitis B virus infected in human HepG2.2.15 cells assessed as inhibition of intracellular HBV DNA level at 1 uM measured on day 9 by FQ-PCR analysis", "settings": "HepG2.2.15, 216 h"}, "Duck hepatitis B virus [6]": {"system": "Duck hepatitis B virus", "assay": "Antiviral activity against DHBV infected in duck assessed as inhibition of viral DNA level in serum at 1 mg/kg, po administered once daily measured on day 10 by SYBR Green I dye-based FQ-PCR analysis relative to control", "settings": "240 h"}, "Hepatitis B virus [7]": {"system": "Hepatitis B virus", "assay": "Antiviral activity against Hepatitis B virus harboring rtV173L/L180M/M204V mutant infected in HepGRL1 cells assessed as inhibition of intracellular HBV DNA level at 1 uM measured on day 6 by FQ-PCR analysis relative to control", "settings": "144 h"}, "Hepatitis B virus [8]": {"system": "Hepatitis B virus", "assay": "Antiviral activity against Hepatitis B virus infected in human HepG2.2.15 cells assessed as inhibition of intracellular HBV DNA level at 5 uM measured on day 9 by FQ-PCR analysis", "settings": "HepG2.2.15, 216 h"}, "Duck hepatitis B virus [9]": {"system": "Duck hepatitis B virus", "assay": "Antiviral activity against DHBV infected in duck assessed as inhibition of viral DNA level in liver at 0.2 mg/kg, po administered once daily measured on day 15 by SYBR Green I dye-based FQ-PCR analysis relative to control", "settings": "360 h"}, "Duck hepatitis B virus [10]": {"system": "Duck hepatitis B virus", "assay": "Antiviral activity against DHBV infected in duck assessed as inhibition of viral DNA level in serum at 0.04 mg/kg, po administered once daily measured on day 15 by SYBR Green I dye-based FQ-PCR analysis relative to control", "settings": "360 h"}, "Hepatitis B virus [11]": {"system": "Hepatitis B virus", "assay": "Antiviral activity against Hepatitis B virus infected in human HepG2.2.15 cells assessed as inhibition of intracellular HBV DNA level at 0.2 uM measured on day 6 by FQ-PCR analysis", "settings": "HepG2.2.15, 144 h"}, "Hepatitis B virus [12]": {"system": "Hepatitis B virus", "assay": "Antiviral activity against Hepatitis B virus harboring rtV173L/L180M/M204V mutant infected in HepGRL1 cells assessed as inhibition of intracellular HBV DNA level at 5 uM measured on day 6 by FQ-PCR analysis relative to control", "settings": "144 h"}, "Duck hepatitis B virus [13]": {"system": "Duck hepatitis B virus", "assay": "Antiviral activity against DHBV infected in duck assessed as inhibition of viral DNA level in liver at 0.04 mg/kg, po administered once daily measured on day 15 by SYBR Green I dye-based FQ-PCR analysis relative to control", "settings": "360 h"}, "Hepatitis B virus [14]": {"system": "Hepatitis B virus", "assay": "Antiviral activity against Hepatitis B virus infected in human HepG2.2.15 cells assessed as inhibition of intracellular HBV DNA level at 0.2 uM measured on day 9 by FQ-PCR analysis", "settings": "HepG2.2.15, 216 h"}, "Duck hepatitis B virus [15]": {"system": "Duck hepatitis B virus", "assay": "Antiviral activity against DHBV infected in duck assessed as inhibition of viral DNA level in liver at 0.04 mg/kg, po administered once daily measured on day 10 by SYBR Green I dye-based FQ-PCR analysis relative to control", "settings": "240 h"}, "Hepatitis B virus [16]": {"system": "Hepatitis B virus", "assay": "Antiviral activity against Hepatitis B virus harboring rtV173L/L180M/M204V mutant infected in HepGRL1 cells assessed as inhibition of intracellular HBV DNA level at 5 uM measured on day 9 by FQ-PCR analysis relative to control", "settings": "216 h"}, "Hepatitis B virus [17]": {"system": "Hepatitis B virus", "assay": "Antiviral activity against Hepatitis B virus infected in human HepG2.2.15 cells assessed as inhibition of intracellular HBV DNA level at 5 uM measured on day 6 by FQ-PCR analysis", "settings": "HepG2.2.15, 144 h"}, "Hepatitis B virus [18]": {"system": "Hepatitis B virus", "assay": "Antiviral activity against Hepatitis B virus harboring rtV173L/L180M/M204V mutant infected in HepGRL1 cells assessed as inhibition of intracellular HBV DNA level at 0.2 uM measured on day 9 by FQ-PCR analysis relative to control", "settings": "216 h"}, "Hepatitis B virus [19]": {"system": "Hepatitis B virus", "assay": "Antiviral activity against Hepatitis B virus infected in human HepG2.2.15 cells assessed as inhibition of intracellular HBV DNA level at 1 uM measured on day 6 by FQ-PCR analysis", "settings": "HepG2.2.15, 144 h"}, "Duck hepatitis B virus [20]": {"system": "Duck hepatitis B virus", "assay": "Antiviral activity against DHBV infected in duck assessed as inhibition of viral DNA level in liver at 1 mg/kg, po administered once daily measured on day 15 by SYBR Green I dye-based FQ-PCR analysis relative to control", "settings": "360 h"}, "Hepatitis B virus [21]": {"system": "Hepatitis B virus", "assay": "Antiviral activity against Hepatitis B virus harboring rtV173L/L180M/M204V mutant infected in HepGRL1 cells assessed as inhibition of intracellular HBV DNA level at 1 uM measured on day 9 by FQ-PCR analysis relative to control", "settings": "216 h"}, "Hepatitis B virus [22]": {"system": "Hepatitis B virus", "assay": "Antiviral activity against Hepatitis B virus harboring rtV173L/L180M/M204V mutant infected in HepGRL1 cells assessed as inhibition of intracellular HBV DNA level at 0.2 uM measured on day 6 by FQ-PCR analysis relative to control", "settings": "144 h"}, "Duck hepatitis B virus [23]": {"system": "Duck hepatitis B virus", "assay": "Antiviral activity against DHBV infected in duck assessed as inhibition of viral DNA level in serum at 1 mg/kg, po administered once daily measured on day 15 by SYBR Green I dye-based FQ-PCR analysis relative to control", "settings": "360 h"}, "Duck hepatitis B virus [24]": {"system": "Duck hepatitis B virus", "assay": "Antiviral activity against DHBV infected in duck assessed as inhibition of viral DNA level in serum at 0.2 mg/kg, po administered once daily measured on day 15 by SYBR Green I dye-based FQ-PCR analysis relative to control", "settings": "360 h"}, "Duck hepatitis B virus [25]": {"system": "Duck hepatitis B virus", "assay": "Antiviral activity against DHBV infected in duck assessed as inhibition of viral DNA level in serum at 0.2 mg/kg, po administered once daily measured on day 10 by SYBR Green I dye-based FQ-PCR analysis relative to control", "settings": "240 h"}, "HepG2 2.2.15": {"system": "HepG2 2.2.15", "assay": "Cytotoxicity against human HepG2.2.15 cells after 9 days by MTT assay", "settings": "HepG2 2.2.15, 216 h"}, "Duck hepatitis B virus [26]": {"system": "Duck hepatitis B virus", "assay": "Antiviral activity against DHBV infected in duck assessed as inhibition of viral DNA level in serum at 0.04 mg/kg, po administered once daily measured on day 10 by SYBR Green I dye-based FQ-PCR analysis relative to control", "settings": "240 h"}},
  "data": [
    {"smiles": "[N-]=[N+]=N[C@]1(CO)O[C@@H](n2cc(C(N)=O)nn2)[C@@H](F)[C@@H]1O", "values": [
      {"measurement": "inhibition at 5 µM", "setting": "Hepatitis B virus [1]", "value": 21.9, "unit": "%"},
      {"measurement": "inhibition in vivo at 0.2 mg/kg", "setting": "Duck hepatitis B virus [2]", "value": 21.4, "unit": "%"},
      {"measurement": "inhibition at 5 µM", "setting": "Hepatitis B virus [3]", "value": 45.3, "unit": "%"},
      {"measurement": "inhibition in vivo at 1 mg/kg", "setting": "Duck hepatitis B virus [4]", "value": 50, "unit": "%"},
      {"measurement": "inhibition at 1 µM", "setting": "Hepatitis B virus [5]", "value": 51, "unit": "%"},
      {"measurement": "inhibition in vivo at 1 mg/kg", "setting": "Duck hepatitis B virus [6]", "value": 56.5, "unit": "%"},
      {"measurement": "inhibition at 1 µM", "setting": "Hepatitis B virus [7]", "value": 27.5, "unit": "%"},
      {"measurement": "inhibition at 5 µM", "setting": "Hepatitis B virus [8]", "value": 57.1, "unit": "%"},
      {"measurement": "inhibition in vivo at 0.2 mg/kg", "setting": "Duck hepatitis B virus [9]", "value": 24.4, "unit": "%"},
      {"measurement": "inhibition in vivo at 0.04 mg/kg", "setting": "Duck hepatitis B virus [10]", "value": 35.7, "unit": "%"},
      {"measurement": "inhibition at 0.2 µM", "setting": "Hepatitis B virus [11]", "value": 13.1, "unit": "%"},
      {"measurement": "inhibition at 5 µM", "setting": "Hepatitis B virus [12]", "value": 49.2, "unit": "%"},
      {"measurement": "inhibition in vivo at 0.04 mg/kg", "setting": "Duck hepatitis B virus [13]", "value": 12.2, "unit": "%"},
      {"measurement": "inhibition at 0.2 µM", "setting": "Hepatitis B virus [14]", "value": 34.7, "unit": "%"},
      {"measurement": "inhibition in vivo at 0.04 mg/kg", "setting": "Duck hepatitis B virus [15]", "value": 7.1, "unit": "%"},
      {"measurement": "inhibition at 5 µM", "setting": "Hepatitis B virus [16]", "value": 64.1, "unit": "%"},
      {"measurement": "inhibition at 5 µM", "setting": "Hepatitis B virus [17]", "value": 42.6, "unit": "%"},
      {"measurement": "inhibition at 0.2 µM", "setting": "Hepatitis B virus [18]", "value": 28.2, "unit": "%"},
      {"measurement": "inhibition at 1 µM", "setting": "Hepatitis B virus [19]", "value": 39.3, "unit": "%"},
      {"measurement": "inhibition in vivo at 1 mg/kg", "setting": "Duck hepatitis B virus [20]", "value": 53.7, "unit": "%"},
      {"measurement": "inhibition at 1 µM", "setting": "Hepatitis B virus [21]", "value": 52.4, "unit": "%"},
      {"measurement": "inhibition at 0.2 µM", "setting": "Hepatitis B virus [22]", "value": 15.8, "unit": "%"},
      {"measurement": "inhibition in vivo at 1 mg/kg", "setting": "Duck hepatitis B virus [23]", "value": 67.9, "unit": "%"},
      {"measurement": "inhibition in vivo at 0.2 mg/kg", "setting": "Duck hepatitis B virus [24]", "value": 39.3, "unit": "%"},
      {"measurement": "inhibition in vivo at 0.2 mg/kg", "setting": "Duck hepatitis B virus [25]", "value": 26.1, "unit": "%"},
      {"measurement": "CC50", "setting": "HepG2 2.2.15", "value": 526, "unit": "µM"},
      {"measurement": "inhibition in vivo at 0.04 mg/kg", "setting": "Duck hepatitis B virus [26]", "value": 8.7, "unit": "%"}
    ]},
    {"smiles": "CNC(=N)c1cn([C@@H]2O[C@@](CO)(N=[N+]=[N-])[C@@H](O)[C@@H]2F)nn1", "values": [
      {"measurement": "inhibition at 5 µM", "setting": "Hepatitis B virus [1]", "value": 13.8, "unit": "%"},
      {"measurement": "inhibition at 5 µM", "setting": "Hepatitis B virus [3]", "value": 22.2, "unit": "%"},
      {"measurement": "CC50", "setting": "HepG2 2.2.15", "value": "> 1000", "unit": "µM"}
    ]},
    {"smiles": "[N-]=[N+]=N[C@]1(CO)O[C@@H](n2cc(CO)nn2)[C@@H](F)[C@@H]1O", "values": [
      {"measurement": "inhibition at 5 µM", "setting": "Hepatitis B virus [1]", "value": 10.8, "unit": "%"},
      {"measurement": "inhibition at 5 µM", "setting": "Hepatitis B virus [3]", "value": 21.5, "unit": "%"},
      {"measurement": "CC50", "setting": "HepG2 2.2.15", "value": "> 1000", "unit": "µM"}
    ]},
    {"smiles": "COC(=N)c1cn([C@@H]2O[C@@](CO)(N=[N+]=[N-])[C@@H](O)[C@@H]2F)nn1", "values": [
      {"measurement": "inhibition at 5 µM", "setting": "Hepatitis B virus [1]", "value": 11.4, "unit": "%"},
      {"measurement": "inhibition at 5 µM", "setting": "Hepatitis B virus [3]", "value": 17.7, "unit": "%"},
      {"measurement": "CC50", "setting": "HepG2 2.2.15", "value": 101, "unit": "µM"}
    ]}
  ]
}
